Converted amounts (≈) assume the structure as drawn. The source made the active and inactive calls. The calls are words filed in the database; no cut-off is given here.

One experiment has as its system HepG2. Description: Cytotoxicity against human HepG2 cells. In kind it is functional, cell-based.
Experiment [1] concerns the target Prothrombin (Homo sapiens) (UniProt P00734). Description: Inhibition of thrombin-mediated conversion of fibrinogen to fibrin.
Experiment [2] is described as follows: Cytotoxicity against human HepG2(2.2.15) cells. Type of experiment: functional, cell-based.

Regarding `CC(C)=C1C=C(CN2CCCC2=O)C(=O)O1` [UNCININE], the IC50 (commonly the point on the concentration scale where inhibition reaches its midpoint) in the experiment on HepG2 amounted to 6.1 µg/mL (≈ 27.6 µM); in experiment [2] it was 7.4 µg/mL (≈ 33.4 µM). For the same compound, the outcome in experiment [1] was inactive.

As to `COC1=C[C@]23CCN(C)[C@H](Cc4cc(OC)c(O)cc42)C3=CC1=O` [FLAVINANTINE], the results for the IC50 (in the experiment with HepG2; in experiment [2]) were 9.3 µg/mL (≈ 28.4 µM) and 9.7 µg/mL (≈ 29.6 µM), respectively. Further, the result in experiment [1] was inactive.

For `NC(=O)N1CCCC1=O` [SQUAMOLONE], the IC50 in the experiment on HepG2 stood at 2.8 µg/mL (≈ 21.9 µM); in experiment [2], 1.6 µg/mL (≈ 12.5 µM). Besides, in experiment [1], the outcome was inactive.

Take `COc1c2c3c(c4c1OCO4)-c1ccccc1C[C@H]3N(C(C)=O)CC2`: the IC50 was determined as 9.8 µg/mL (≈ 29 µM) in the experiment with HepG2 and 9.3 µg/mL (≈ 27.6 µM) in experiment [2]. Further, in experiment [1], the outcome was inactive.

On to `COC1=C[C@@]23CCN(C)[C@@H](Cc4ccc(OC)c(O)c42)C3=CC1=O`, for which the IC50 in the experiment on HepG2 amounted to 10.2 µg/mL (≈ 31.2 µM); in experiment [2], 10.4 µg/mL (≈ 31.8 µM). Moreover, the result in experiment [1] was inactive.

Turning to `COc1c2c3c(c4c1OCO4)-c1ccccc1[C@@H](O)[C@H]3NCC2` [ARTABONATINE B], the IC50 with HepG2 was found to be 9.1 µg/mL (≈ 29.2 µM); in experiment [2], 11 µg/mL (≈ 35.3 µM). In addition, the result in experiment [1] was inactive.

As for `COc1ccc2c(c1)C(=O)c1nccc3cc4c(c-2c13)OCO4` [ATHEROSPERMIDINE], the IC50 in the experiment on HepG2 is 0.8 µg/mL (≈ 2.62 µM); in experiment [2], 2.2 µg/mL (≈ 7.21 µM). In addition, the result in experiment [1] was inactive.

For the origin of these results see ChEMBL document CHEMBL1155763, “The alkaloids of Artabotrys uncinatus” (J Nat Prod, 2001).
